For data set [1] the following is noted: cited from earlier work.
Data set [2] deals with patients after bariatric surgery with post-prandial hypoglycaemia. In words: Follow up: off-label therapy with empagliflozin after the study. In kind it is in vivo, human. As to conditions: six patients. The source says: Two trial participants were continued to be treated, and four more patients were initiated on off-label therapy with empagliflozin after completion of the study.

Data set [3] has as its system bulk monocytes. In words: RNA sequencing of monocytes isolated from treated patients. Also noted: species or system human. As to conditions: treatment compared to placebo. As for the experimental part: Following the inventors' hypothesis of an overactivation of the innate immune system in patients experiencing post-bariatric hypoglycemia, they assessed transcriptional changes in innate immune cells from the inventors' patient population using an unbiased RNA sequencing approach. Therefore, the inventors isolated monocytes from peripheral blood sampled immediately before and 60 minutes (i.e. before rescue glucose application when needed) after ingestion of the mixed-meal on all three treatment days.
(§1) Blood samples were taken before and 60 minutes after meal intake. Due to scheduling conflicts, samples from two patients could not be processed. These samples are thus assumed to be missing at random. Of note, samples from patient 3 (sleeve gastrectomy) had already been processed for RNA sequencing before the final change of protocol. Sequencing data obtained from this patient were thus kept for the purpose of these analyses. Peripheral blood mononuclear cells were obtained by Ficoll density gradient centrifugation (Lymphoprep Fresenius Kabi, Norway). For 9 out of 11 patients, an additional step was added after density gradient centrifugation to pre-enrich monocytes by negative selection with CD3 human MicroBeads (#130-050-101; Miltenyi Biotec). The obtained cellular monocyte fractions were then incubated with FC-Block for 15 minutes at room temperature [(Human FcR TruStain FcX (Biolegend) REF 422302, compatible with flow cytometric staining with anti-human CD16 (clone 3G8)], and subsequently labeled with the following antibodies: APC Mouse anti-Human CD3 [HIT3a alpha] (#555342; BD Biosciences), FITC Mouse Anti-Human CD19 [HIB19 RUO] (#560994; BD Biosciences), PE-Cy5 Mouse Anti-Human CD56 [B159 RUO] (#560842; BD Biosciences), PE Mouse Anti-Human CD16 [3G8 RUO] (#560995; BD Biosciences), APC-Cy7 Mouse Anti-Human CD14 [MφP-9 RUO] (#561709; BD Biosciences).
(§2) Cells were then further enriched into the three monocyte subsets by fluorescence-activated cell sorting on a BD FACS-Aria III. Classical monocytes were defined as: single, live, CD56− CD19−CD3−CD14+CD16−, Intermediate monocytes were defined as: single, live CD56−CD19− CD3−CD14+CD16+ and non-classical monocytes were defined as: single, live CD56−CD19− CD3−CD14−CD16+. Bulk monocytes were defined as a combination-gate of the three subsets. For a representative example of the gating strategy see FIG. 13.
Total RNA was extracted from 500'000 bulk monocytes, isolated as described above using the Nucleo Spin RNA II Kit (Machery Nagel). Integrity of isolated total RNA was assessed on a 2100 Bioanalyzer System (Agilent Technologies, USA) with the Agilent RNA 6000 Pico Kit as recommended by the manufacturer. RNA concentration was determined with the Quant-iT RiboGreen RNA Assay Kit (Thermo Fisher Scientific, USA).
Purification of mRNA by poly(A)-selection, mRNA fragmentation and cDNA library preparation for RNA-Seq were performed using the TruSeq Stranded mRNA HT Sample Preparation Kit (Illumina, USA) according to the manufacturer's protocol. Before sequencing, quality and quantity analysis of prepared cDNA libraries were done on a Fragment Analyzer System (Advanced Analytical Technologies, USA). cDNA libraries were sequenced as single-end reads with 125 cycles on a HiSeq2500 sequencing system (Illumina, USA) at the Genomics Facility Basel. Of note, 2 samples failed during library preparation.
Initial quality checks were performed with FastQC version 0.11.4 (www.bioinformatics.babraham.ac.uk/projects/fastqc/). Adaptor clipping and quality-trimming of sequences was performed using Trimmomatic version 0.36 (Bolger, A. M., Lohse, M., and Usadel, B. (2014). Bioinformatics 30, 2114-2120) and reads were aligned to the GRCh38 reference genome using the splice aware aligner STAR version 2.7.0 (Dobin, A., et al. (2013). Bioinformatics 29, 15-21). Count-tables were produced using HTSeq version 0.6.1 (Anders, S., Pyl, P. T., and Huber, W. (2015). Bioinformatics 31, 166-169). […]

In data set [4] the test system is bulk monocytes. The data set can be described thus: Ex vivo cytokine-secretion assay of monocytes isolated from treated patients. In kind it is cell-based, human. As to conditions: for IL-1 beta in monocyte supernatant, estimate vs placebo: FIG. 9a; for IL-1 beta in monocyte supernatant, estimate vs placebo / IL-6 in monocyte supernatant, estimate vs placebo / TNFalpha in monocyte supernatant, estimate vs placebo: post-meal, no-hypo vs placebo, no-hypo, non-stimulated; for IL-6 in monocyte supernatant, estimate vs placebo: FIG. 9b; for TNFalpha in monocyte supernatant, estimate vs placebo: FIG. 9c; for postprandial increase in inflammatory cytokine secretion (IL-1β, IL-6, TNF-α) by monocytes: ex vivo culture 18 h, compared to placebo. As for the experimental part: In order to evaluate if changes at RNA level translated into protein expression, the inventors cultured monocytes isolated as described for RNA sequencing for a period of 18 h and measured pro-inflammatory cytokines in cell culture supernatants. […] In line with the reasoning, it has been shown that monocytes taken from an inherently pro-inflammatory milieu (septic shock), express increased mRNA levels of various inflammatory cytokines and chemokines (IL-1β, IL-1α, IL-6, CCL2), but release markedly lower levels of protein following ex vivo stimulation with LPS.
as §1, §2
Bulk monocytes obtained as described above were resuspended in fresh medium (RPMI-1640 (containing 11 mM Glucose, #31870-025; GIBCO) containing 200 U/ml penicillin, 200 U/ml streptomycin (Pen/Strep, #15140; GIBCO), 2 mM Glutamax (#35050061; GIBCO), 1 mM NaPyruvat (#11360-039; GIBCO), 1×MeM (#11140050; Sigma) and 10% FCS (#10500; Invitrogen)) at a density of 50'000 cells/well in a standard 96-well U-bottom plate. For each patient-visit sample, monocytes pre- and post-liquid mixed-meal were either left unstimulated (baseline condition) or activated with LPS (LPS-SM, #tlrl-smlps, Invivogen=activated condition) at a concentration of 5 ng/ml in duplicates. Thus, treated cells were then incubated for a period of 18 hours at 37° C. and 5% CO2 followed by harvesting of cell supernatants. Cytokine concentrations were determined in cell supernatants using the V-PLEX Human Proinflammatory Panel II (4-Plex) kit (Mesoscale Discovery) according to the manufacturer's instructions (Alternate Protocol 1, Extended Incubation). Two patients had to be excluded from analysis due to technical problems.

For data set [5] the following is noted: cited from earlier work. The source holds these as a separate data set.
For data set [6] the following is noted: subcutaneous administration; cited from earlier work.

As to `OC[C@H]1O[C@@H](c2ccc(Cl)c(Cc3ccc(O[C@H]4CCOC4)cc3)c2)[C@H](O)[C@@H](O)[C@@H]1O` [empagliflozin], in data set [1], the mean Plasma-AUC in the steady state was 1.87 µM·h. Besides, the “efficacy and tolerability more than half a year after initiating off-label therapy” value in data set [2] is “still effective and well tolerated by all patients”. In data set [2] (empagliflozin after completion of the study), the “frequency of hypoglycemic episodes, off-label therapy” value was “lower frequency of hypoglycemic episodes in each of the six patients”. Also, in data set [3], the “number of downregulated genes in monocytes” value stood at 0, the “number of upregulated genes in monocytes” value turned out to be 14 and the “total genes differentially regulated in monocytes” value was determined as 14. Moreover, in data set [4], the “IL-1 beta in monocyte supernatant, estimate vs placebo” value is listed as −3395.36; the “IL-6 in monocyte supernatant, estimate vs placebo” value is −18937.7; the “TNFalpha in monocyte supernatant, estimate vs placebo” value is recorded as −453.496; the “postprandial increase in inflammatory cytokine secretion (IL-1β, IL-6, TNF-α) by monocytes” value was “significantly inhibited”.

“anakinra: CAS NO 143090-92-0; recombinant, non-glycosylated form of the human interleukin-1 receptor antagonist (IL-1 Ra), 153 amino acids”: the “reduction of WBC/ANC” value in data set [5] (share of patients) is given as 2.4%. Moreover, the “mild and transient local injection reactions” value in data set [5] (share of subjects treated) is reported as 20-50%. The “time of maximum plasma concentration” value in data set [6] is given as 4 h. In data set [3], the “number of downregulated genes in monocytes” value amounted to 71, the “number of upregulated genes in monocytes” value is given as 163 and the “total genes differentially regulated in monocytes” value was 234. Besides, in data set [4], the “IL-1 beta in monocyte supernatant, estimate vs placebo” value is recorded as −2426.73; the “IL-6 in monocyte supernatant, estimate vs placebo” value is −17208.1; the “TNFalpha in monocyte supernatant, estimate vs placebo” value is −452.659; the “postprandial increase in inflammatory cytokine secretion (IL-1β, IL-6, TNF-α) by monocytes” value is “significantly inhibited”.

The values above are taken from US20220088144A1, “SGLT-2 INHIBITORS OR IL-1R ANTAGONISTS FOR REDUCTION OF HYPOGLYCAEMIA AFTER BARIATRIC SURGERY” (UNIVERSITÄTSSPITAL BASEL, priority 2019, published 2022).
